We go through three compounds from US4066753A, “Neomycin and paromomycin derivatives” (Canadian Patents and Development Limited, priority 1976, dated 1978).

In general, MIC refers to the lowest concentration that inhibits growth of the organism.

In brackets after ≈: the same amount, converted by molar mass. Like-named read-outs stand apart in the source and are kept apart here.

What all share (format): cell-based
The test system of one test is P. mirabilis. Nature of the test: IN VITRO antibacterial activity, P. mirabilis. To be noted: Proteus mirabilis. Here is the method:
(§1) In the Tables above MIC stands for minimum inhibitory concentration and
(§2) the results were obtained by providing halving dilutions of the test
(§3) compound in nutrient broth (concentrations usually range from 1/10,000 to
(§4) 1/320,000). These solutions are inoculated with the test organism,
(§5) incubated for 24 hours at 37° C and then examined for the presence
(§6) of growth. A test compound found to have a minimum inhibitory
(§7) concentration (MIC) of 1/160,000 is generally considered as a lead.

For the next test, the system named is S. pyogenes R. In words: IN VITRO antibacterial activity, S. pyogenes R. To be noted: Streptococcus pyogenes. Here is the method: as §1, §2, §3, §4, §5, §6, §7
For a further test, the system named is S. fecalis. In words: IN VITRO antibacterial activity, S. fecalis. Here is the method:
as §1, §2, §3, §4, §5, §6, §7

The test system of test [1] is strains of E. Coli resistant to neomycin and paromomycin. Nature of the test: Antibacterial activity against resistant E. Coli. Here is the method:
as §1, §2, §3, §4, §5, §6, §7

The next test has as its system S. pullorm. In words: IN VITRO antibacterial activity, S. pullorm. Here is the method:
as §1, §2, §3, §4, §5, §6, §7

The next test concerns E. coli 198. Nature of the test: IN VITRO antibacterial activity, E. coli 198. Here is the method: as §1, §2, §3, §4, §5, §6, §7
In a further test the test system is E. coli B996. Nature of the test: IN VITRO antibacterial activity, E. coli B996 (resistant to Kanamycin and paromomycin). The settings on record: Escherichia coli, nutrient broth, 24 hours at 37° C. Here is the method: as §1, §2, §3, §4, §5, §6, §7
Another test relates to P. aeruginosa. In words: IN VITRO antibacterial activity, P. aeruginosa. The settings on record: Pseudomonas aeruginosa. Here is the method:
as §1, §2, §3, §4, §5, §6, §7

The next test deals with A. aerogenes. In words: IN VITRO antibacterial activity, A. aerogenes. To be noted: Klebsiella aerogenes. Here is the method: as §1, §2, §3, §4, §5, §6, §7
For another test, the system named is S. pyogenes S. In words: IN VITRO antibacterial activity, S. pyogenes S. To be noted: Streptococcus pyogenes. Here is the method:
as §1, §2, §3, §4, §5, §6, §7

The subject of test [2] is strains of P. Aeruginosa resistant to neomycin B and paromomycin I. Nature of the test: Antibacterial activity against resistant P. Aeruginosa. Here is the method: as §1, §2, §3, §4, §5, §6, §7
The subject of another test is S. marcesceus. Nature of the test: IN VITRO antibacterial activity, S. marcesceus. Here is the method: as §1, §2, §3, §4, §5, §6, §7
The test system of another test is K. pneumoniae. In words: IN VITRO antibacterial activity, K. pneumoniae. To be noted: Klebsiella pneumoniae. Here is the method:
as §1, §2, §3, §4, §5, §6, §7

In a further test the test system is P. aeruginosa 377. In words: IN VITRO antibacterial activity against resistant organisms, P. aeruginosa 377. To be noted: Pseudomonas aeruginosa; resistant organism P. aeruginosa 377; nutrient broth, 24 hours at 37° C; read-out: MIC. Here is the method: as §1, §2, §3, §4, §5, §6, §7
The subject of a further test is E. coli B1002. In words: IN VITRO antibacterial activity against resistant organisms, E. coli B1002. To be noted: Escherichia coli; resistant organism E. coli B1002; nutrient broth, 24 hours at 37° C; read-out: MIC. Here is the method: as §1, §2, §3, §4, §5, §6, §7
For the next test, the system named is P. aeruginosa 87442. In words: IN VITRO antibacterial activity against resistant organisms, P. aeruginosa 87442. To be noted: Pseudomonas aeruginosa; resistant organism P. aeruginosa 87442; nutrient broth, 24 hours at 37° C; read-out: MIC. Here is the method: as §1, §2, §3, §4, §5, §6, §7
For a further test, the system named is E. coli B989. Nature of the test: IN VITRO antibacterial activity against resistant organisms, E. coli B989. The settings on record: Escherichia coli; resistant organism E. coli B989; nutrient broth, 24 hours at 37° C; read-out: MIC. Here is the method:
as §1, §2, §3, §4, §5, §6, §7

On to `NC[C@@H]1O[C@H](O[C@H]2[C@@H](O)[C@H](O[C@@H]3[C@@H](O)[C@H](N)C[C@H](N)[C@H]3O[C@H]3O[C@H](CO)[C@@H](O)[C@H](O)[C@H]3N)O[C@@H]2CN)[C@H](N)[C@@H](O)[C@@H]1O` [5"-amino-5"-deoxyparomomycin I], for which the MIC is 1.6 µg/mL (≈ 2.6 µM) with P. mirabilis (P. mirabilis, nutrient broth, 24 hours at 37° C, read-out: MIC); 0.4 µg/mL (≈ 0.651 µM) with S. pyogenes R (S. pyogenes R, nutrient broth, 24 hours at 37° C, read-out: MIC); 6.4 µg/mL (≈ 10.4 µM) in the test on S. fecalis (S. fecalis, nutrient broth, 24 hours at 37° C, read-out: MIC); 0.8 µg/mL (≈ 1.3 µM) in the test with S. pullorm (S. pullorm, nutrient broth, 24 hours at 37° C, read-out: MIC); 6.4 µg/mL (≈ 10.4 µM) in the test with E. coli 198 (Escherichia coli, E. coli 198, nutrient broth, 24 hours at 37° C, read-out: MIC); 12.5 µg/mL (≈ 20.3 µM) with E. coli B996. Also, the MIC was 12.5 µg/mL (≈ 20.3 µM) in the test on P. aeruginosa (P. aeruginosa, nutrient broth, 24 hours at 37° C, read-out: MIC); 1.6 µg/mL (≈ 2.6 µM) in the test on A. aerogenes (A. aerogenes, nutrient broth, 24 hours at 37° C, read-out: MIC); less than 0.2 µg/mL in the test on S. pyogenes S (S. pyogenes S, nutrient broth, 24 hours at 37° C, read-out: MIC); 0.8 µg/mL (≈ 1.3 µM) in the test with S. marcesceus (S. marcesceus, nutrient broth, 24 hours at 37° C, read-out: MIC); 0.8 µg/mL (≈ 1.3 µM) in the test on K. pneumoniae (K. pneumoniae, nutrient broth, 24 hours at 37° C, read-out: MIC). Further, the “antibacterial activity against resistant E. Coli” value in test [1] is on record as “particularly effective”. In test [2], the “antibacterial activity against resistant P. Aeruginosa” value is recorded as “particularly effective”.
Regarding `NC[C@@H]1O[C@H](O[C@H]2[C@@H](O)[C@H](O[C@@H]3[C@@H](O)[C@H](N)C[C@H](N)[C@H]3O[C@H]3O[C@H](CN)[C@@H](O)[C@H](O)[C@H]3N)O[C@@H]2CO)[C@H](N)[C@@H](O)[C@@H]1O` [Neomycin], the MIC is 0.4 µg/mL (≈ 0.651 µM) in the test with P. aeruginosa 377, 50 µg/mL (≈ 81.3 µM) with E. coli B1002, less than 0.2 µg/mL with P. aeruginosa 87442 and 1.6 µg/mL (≈ 2.6 µM) with E. coli B989.
`NC[C@@H]1O[C@H](O[C@H]2[C@@H](O)[C@H](O[C@@H]3[C@@H](O)[C@H](N)C[C@H](N)[C@H]3O[C@H]3O[C@H](CO)[C@@H](O)[C@H](O)[C@H]3N)O[C@@H]2CO)[C@H](N)[C@@H](O)[C@@H]1O` [Paromomycin]: the MIC in the test on P. mirabilis (24 h) is more than 0.2 µg/mL; with S. pyogenes R (24 h), less than 0.2 µg/mL; with S. fecalis (24 h), 1.6 µg/mL (≈ 2.6 µM); with S. pullorm (24 h), more than 0.2 µg/mL; with E. coli 198 (Escherichia coli, 198, 24 h) it was 0.4 µg/mL (≈ 0.65 µM); in the test with E. coli B996 it was more than 100 µg/mL. For the same compound, the MIC is 0.8 µg/mL (≈ 1.3 µM) against P. aeruginosa (24 h); more than 0.2 µg/mL in the test on A. aerogenes (24 h); less than 0.2 µg/mL against S. pyogenes S (24 h); 0.4 µg/mL (≈ 0.65 µM) in the test on S. marcesceus (24 h); more than 0.2 µg/mL in the test on K. pneumoniae (24 h).
